System: 233499-124-R-J3-PDC complex spheroid viability
Assay: Anticancer human tumor 233499-124-R-J3-PDC patient-derived colon adenocarcinoma cell line growth inhibition [CLK]
Details: for IC50: curve of first compound; for viability, T/C: stronger effect = lower value
In short: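 Multi-cell-type spheroids combined patient-derived tumor cells with HUVEC endothelial cells and human mesenchymal stem cells. Paired agents were dosed in half-log steps down from about clinical Cmax, or from 10 microM where Cmax was unknown.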

[1] = second compound 0.0316 µM, first compound 0.0316 µM
[2] = second compound 0.0316 µM, first compound 0.1 µM
[3] = second compound 0.0316 µM, first compound 0.316 µM
[4] = second compound 0.0316 µM, first compound 1 µM
[5] = second compound 0.1 µM, first compound 0.0316 µM
[6] = second compound 0.1 µM, first compound 0.1 µM
[7] = second compound 0.1 µM, first compound 0.316 µM
[8] = second compound 0.1 µM, first compound 1 µM
[9] = second compound 0.316 µM, first compound 0.0316 µM
[10] = second compound 0.316 µM, first compound 0.1 µM
[11] = second compound 0.316 µM, first compound 0.316 µM
[12] = second compound 0.316 µM, first compound 1 µM
[13] = second compound 1 µM, first compound 0.0316 µM
[14] = second compound 1 µM, first compound 0.1 µM
[15] = second compound 1 µM, first compound 0.316 µM
[16] = second compound 1 µM, first compound 1 µM
[17] = second compound 3.16 µM, first compound 0.0316 µM
[18] = second compound 3.16 µM, first compound 0.1 µM
[19] = second compound 3.16 µM, first compound 0.316 µM
[20] = second compound 3.16 µM, first compound 1 µM
[21] = second compound 10 µM, first compound 0.0316 µM
[22] = second compound 10 µM, first compound 0.1 µM
[23] = second compound 10 µM, first compound 0.316 µM
[24] = second compound 10 µM, first compound 1 µM
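Further: spheroids exposed to the drug combinations for seven days.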
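Wherever viability, T/C is given: percent viability relative to DMSO vehicle control wells taken as 100%.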

For `C=CC(=O)Nc1cc(Nc2nccc(-c3cn(C)c4ccccc34)n2)c(OC)cc1N(C)CCN(C)C` + CN1CCN(c2cc(C(=O)Nc3cc4cc(-c5cnn(C)c5)ccc4cn3)ccn2)CC1, the IC50 (second compound 0.0316 µM) was over 300 nM, the IC50 (second compound 0.1 µM) was over 300 nM and the IC50 (second compound 0.316 µM) was over 300 nM. It also gave an IC50 (second compound 1 µM) of under 0.949 nM, an IC50 (second compound 3.16 µM) of under 0.949 nM and an IC50 (second compound 10 µM) of under 0.949 nM. For the same compound, the viability, T/C (second compound 0.0316 µM, first compound 0.000949 µM) was 85.9%, the viability, T/C (second compound 0.0316 µM, first compound 0.003 µM) was 100% and the viability, T/C (second compound 0.0316 µM, first compound 0.00949 µM) was 102%. It also gave a viability, T/C (second compound 0.0316 µM, first compound 0.03 µM) of 104%, a viability, T/C (second compound 0.0316 µM, first compound 0.0949 µM) of 99.3% and a viability, T/C (second compound 0.0316 µM, first compound 0.3 µM) of 91.8%. The viability, T/C (second compound 0.1 µM, first compound 0.000949 µM) was 98%, the viability, T/C (second compound 0.1 µM, first compound 0.003 µM) was 102% and the viability, T/C (second compound 0.1 µM, first compound 0.00949 µM) was 93.7%. The viability, T/C (second compound 0.1 µM, first compound 0.03 µM) was 97.9%, the viability, T/C (second compound 0.1 µM, first compound 0.0949 µM) was 94.5% and the viability, T/C (second compound 0.1 µM, first compound 0.3 µM) was 83%. It also gave a viability, T/C (second compound 0.316 µM, first compound 0.000949 µM) of 90.3%, a viability, T/C (second compound 0.316 µM, first compound 0.003 µM) of 92.2% and a viability, T/C (second compound 0.316 µM, first compound 0.00949 µM) of 89.7%. For the same compound, the viability, T/C (second compound 0.316 µM, first compound 0.03 µM) was 89.4%, the viability, T/C (second compound 0.316 µM, first compound 0.0949 µM) was 93.8% and the viability, T/C (second compound 0.316 µM, first compound 0.3 µM) was 76.6%. It also gave a viability, T/C (second compound 1 µM, first compound 0.000949 µM) of 4.73%, a viability, T/C (second compound 1 µM, first compound 0.003 µM) of 9.3% and a viability, T/C (second compound 1 µM, first compound 0.00949 µM) of 0.69%. The viability, T/C (second compound 1 µM, first compound 0.03 µM) was 1.14%, the viability, T/C (second compound 1 µM, first compound 0.0949 µM) was 0.77% and the viability, T/C (second compound 1 µM, first compound 0.3 µM) was 0.67%. It also gave a viability, T/C (second compound 3.16 µM, first compound 0.000949 µM) of 0.69%, a viability, T/C (second compound 3.16 µM, first compound 0.003 µM) of 0.65% and a viability, T/C (second compound 3.16 µM, first compound 0.00949 µM) of 0.63%. For the same compound, the viability, T/C (second compound 3.16 µM, first compound 0.03 µM) was 0.6%, the viability, T/C (second compound 3.16 µM, first compound 0.0949 µM) was 0.55% and the viability, T/C (second compound 3.16 µM, first compound 0.3 µM) was 1.62%. The viability, T/C (second compound 10 µM, first compound 0.000949 µM) was 0.51%, the viability, T/C (second compound 10 µM, first compound 0.003 µM) was 0.59% and the viability, T/C (second compound 10 µM, first compound 0.00949 µM) was 0.58%. It also gave a viability, T/C (second compound 10 µM, first compound 0.03 µM) of 0.51%, a viability, T/C (second compound 10 µM, first compound 0.0949 µM) of 0.4% and a viability, T/C (second compound 10 µM, first compound 0.3 µM) of 0.27%.

`CC(CO)NC(=O)c1cc(-c2ccc(Cl)cc2)nn(-c2cnn(C)c2)c1=O` (stereo unspecified) + CN1CCN(c2cc(C(=O)Nc3cc4cc(-c5cnn(C)c5)ccc4cn3)ccn2)CC1 gave an IC50 (second compound 0.0316 µM) of over 10000 nM, an IC50 (second compound 0.1 µM) of over 10000 nM and an IC50 (second compound 0.316 µM) of over 10000 nM. For the same compound, the IC50 (second compound 1 µM) was under 31.6 nM, the IC50 (second compound 3.16 µM) was under 31.6 nM and the IC50 (second compound 10 µM) was under 31.6 nM. For the same compound, the viability, T/C [1] was 97.5%, the viability, T/C [2] was 100% and the viability, T/C [3] was 98.1%. It also gave a viability, T/C [4] of 92%, a viability, T/C (second compound 0.0316 µM, first compound 3.16 µM) of 98.5% and a viability, T/C (second compound 0.0316 µM, first compound 10 µM) of 66.4%. The viability, T/C [5] was 86.3%, the viability, T/C [6] was 112% and the viability, T/C [7] was 103%. For the same compound, the viability, T/C [8] was 94.2%, the viability, T/C (second compound 0.1 µM, first compound 3.16 µM) was 94.3% and the viability, T/C (second compound 0.1 µM, first compound 10 µM) was 80%. For the same compound, the viability, T/C [9] was 93.3%, the viability, T/C [10] was 94.4% and the viability, T/C [11] was 92.2%. The viability, T/C [12] was 94.8%, the viability, T/C (second compound 0.316 µM, first compound 3.16 µM) was 103% and the viability, T/C (second compound 0.316 µM, first compound 10 µM) was 68.9%. It also gave a viability, T/C [13] of 1.24%, a viability, T/C [14] of 1.01% and a viability, T/C [15] of 6.77%. For the same compound, the viability, T/C [16] was 3.75%, the viability, T/C (second compound 1 µM, first compound 3.16 µM) was 6.32% and the viability, T/C (second compound 1 µM, first compound 10 µM) was 0.66%. For the same compound, the viability, T/C [17] was 0.63%, the viability, T/C [18] was 0.7% and the viability, T/C [19] was 0.8%. The viability, T/C [20] was 0.74%, the viability, T/C (second compound 3.16 µM, first compound 3.16 µM) was 0.73% and the viability, T/C (second compound 3.16 µM, first compound 10 µM) was 0.73%. The viability, T/C [21] was 0.53%, the viability, T/C [22] was 0.48% and the viability, T/C [23] was 1.5%. The viability, T/C [24] was 0.55%, the viability, T/C (second compound 10 µM, first compound 3.16 µM) was 0.5% and the viability, T/C (second compound 10 µM, first compound 10 µM) was 0.6%.

`CCN1CCN(Cc2ccc(Nc3ncc(F)c(-c4cc(F)c5nc(C)n(C(C)C)c5c4)n3)nc2)CC1` + CN1CCN(c2cc(C(=O)Nc3cc4cc(-c5cnn(C)c5)ccc4cn3)ccn2)CC1 showed an IC50 (second compound 0.0316 µM) of over 1000 nM, an IC50 (second compound 0.1 µM) of over 1000 nM and an IC50 (second compound 0.316 µM) of over 1000 nM. For the same compound, the IC50 (second compound 1 µM) was under 3.16 nM, the IC50 (second compound 3.16 µM) was under 3.16 nM and the IC50 (second compound 10 µM) was under 3.16 nM. The viability, T/C (second compound 0.0316 µM, first compound 0.00316 µM) was 96.4%, the viability, T/C (second compound 0.0316 µM, first compound 0.01 µM) was 87.2% and the viability, T/C [1] was 81.5%. It also gave a viability, T/C [2] of 107%, a viability, T/C [3] of 97.9% and a viability, T/C [4] of 97.4%. The viability, T/C (second compound 0.1 µM, first compound 0.00316 µM) was 91.5%, the viability, T/C (second compound 0.1 µM, first compound 0.01 µM) was 114% and the viability, T/C [5] was 83.1%. For the same compound, the viability, T/C [6] was 90.5%, the viability, T/C [7] was 93.1% and the viability, T/C [8] was 93.1%. The viability, T/C (second compound 0.316 µM, first compound 0.00316 µM) was 92.7%, the viability, T/C (second compound 0.316 µM, first compound 0.01 µM) was 91.6% and the viability, T/C [9] was 96.2%. The viability, T/C [10] was 87.5%, the viability, T/C [11] was 86.9% and the viability, T/C [12] was 77.9%. For the same compound, the viability, T/C (second compound 1 µM, first compound 0.00316 µM) was 6.1%, the viability, T/C (second compound 1 µM, first compound 0.01 µM) was 0.82% and the viability, T/C [13] was 1.32%. It also gave a viability, T/C [14] of 4.68%, a viability, T/C [15] of 6.35% and a viability, T/C [16] of 2.16%. It also gave a viability, T/C (second compound 3.16 µM, first compound 0.00316 µM) of 0.75%, a viability, T/C (second compound 3.16 µM, first compound 0.01 µM) of 0.56% and a viability, T/C [17] of 0.71%. It also gave a viability, T/C [18] of 0.69%, a viability, T/C [19] of 1.11% and a viability, T/C [20] of 1.38%. It also gave a viability, T/C (second compound 10 µM, first compound 0.00316 µM) of 0.5%, a viability, T/C (second compound 10 µM, first compound 0.01 µM) of 0.56% and a viability, T/C [21] of 1.04%. It also gave a viability, T/C [22] of 0.52%, a viability, T/C [23] of 0.59% and a viability, T/C [24] of 0.61%.
